4 compounds from ChEMBL document CHEMBL1201862, “PubChem BioAssay data set” (2004) can be followed below.

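Tested at 5 concentrations; 48 h exposure; 96-well plates; endpoints linearly interpolated, else capped at highest concentration. GI50: concentration for 50% inhibition of growth.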 Calls of active or inactive are those of the source. Cut-off read from the data, not from the text of the source: active = GI50 up to about 1.1 µM and inactive = higher. Some results are limits rather than exact numbers.

Some test systems named below: SN12C; HCT-15; SNB-19; SK-MEL-5; NCI-H23; UACC-62; BT-549; HCT-116; OVCAR-5; MDA-MB-435; TK-10; EKVX; K562; UO-31; OVCAR-3; OVCAR-8; SF-539; SF-268; HCC 2998; MOLT-4.
Common to all, as to test: NCI-60 cell line screen, 48 h

Regarding `O=C1CC(Cl)c2c(Cl)sc(Cl)c21` (stereo not given), the GI50 was 1.84 µM (inactive) with SN12C; 2.02 µM with HCT-15; 11.4 µM (inactive) with SNB-19; 13.2 µM (inactive) in the test with SK-MEL-5; 2.88 µM (inactive) with NCI-H23; 2.16 µM (inactive) in the test on UACC-62. The GI50 is 4.06 µM (inactive) with BT-549; 1.69 µM (inactive) in the test on HCT-116; 16.2 µM (inactive) with OVCAR-5; 2.36 µM (inactive) with MDA-MB-435; 2.36 µM (inactive) with TK-10; 3.94 µM (inactive) with EKVX. Further, the GI50 was 2.85 µM (inactive) in the test with K562; 1.99 µM (inactive) in the test with UO-31; 2.31 µM (inactive) in the test on OVCAR-3; 1.8 µM (inactive) in the test with OVCAR-8; 2.63 µM (inactive) in the test with SF-539; 1.79 µM (inactive) in the test with SF-268. Moreover, the figures for the GI50 in the test on HCC 2998 and with MOLT-4 were 2.36 µM (inactive) and 1.23 µM (inactive), respectively.

Take `c1ccc(CC2COC(c3cccs3)=N2)cc1` (stereo not given): the GI50 in the test on SN12C is > 64.4 µM (inactive); with HCT-15, 38.3 µM; in the test with SNB-19 it was > 70.3 µM (inactive); with SK-MEL-5, 57.7 µM (inactive); in the test on NCI-H23, > 79.8 µM (inactive); with UACC-62 it was > 100 µM (inactive). Further, the GI50 is 54.8 µM (inactive) in the test with BT-549; 54.7 µM (inactive) in the test on HCT-116; > 100 µM (inactive) in the test on OVCAR-5; > 100 µM (inactive) with MDA-MB-435; > 90.2 µM (inactive) with TK-10; 66.2 µM (inactive) in the test with EKVX. Further, the GI50 in the test with K562 was 46.6 µM (inactive); in the test with UO-31, 64.1 µM (inactive); with OVCAR-3 it was > 86.5 µM (inactive); in the test with OVCAR-8 it was > 100 µM (inactive); with SF-539, > 45 µM (inactive); in the test with SF-268 it was > 91 µM (inactive). Also, the GI50 is > 73.8 µM (inactive) with HCC 2998 and 47.8 µM (inactive) in the test on MOLT-4.

As to `c1ccc2sc(C3(N4CCCCCC4)CCCCC3)cc2c1`, the GI50 with SN12C was 20.6 µM (inactive); in the test on HCT-15, 22.3 µM; in the test on SNB-19, 18.7 µM (inactive); with SK-MEL-5 it was 17.5 µM (inactive); in the test on NCI-H23, 20 µM (inactive); in the test with UACC-62, 20.4 µM (inactive). For the same compound, the GI50 in the test on BT-549 was 25 µM (inactive); in the test with HCT-116 it was 20.3 µM (inactive); with OVCAR-5 it was 17.8 µM (inactive); in the test on MDA-MB-435, 25.3 µM (inactive); in the test with TK-10, 22.8 µM (inactive); in the test on EKVX it was 22.8 µM (inactive). Besides, the GI50 with K562 is 16.7 µM (inactive); in the test on UO-31 it was 20.3 µM (inactive); in the test on OVCAR-3 it was 16.3 µM (inactive); in the test with OVCAR-8, 29.5 µM (inactive); in the test with SF-539, 23.4 µM (inactive); in the test with SF-268, 25.8 µM (inactive). Also, the figures for the GI50 in the test with HCC 2998 and with MOLT-4 were 15.5 µM (inactive) and 15.6 µM (inactive), respectively.

As to `O=C1C(NCCc2ccc(O)c(O)c2)=CC(=O)c2ncccc21`, the GI50 in the test with SN12C was 10.1 µM (inactive); in the test with HCT-15 it was 13.4 µM; with SNB-19, 18.5 µM (inactive); with SK-MEL-5, 2.93 µM (inactive); with NCI-H23 it was 7.36 µM (inactive); with UACC-62 it was 5.37 µM (inactive). Moreover, the GI50 in the test on BT-549 was 4.28 µM (inactive); with HCT-116, 12.2 µM (inactive); with OVCAR-5, 19.7 µM (inactive); with MDA-MB-435, 1.7 µM (inactive); in the test on TK-10, 36.2 µM (inactive); in the test with EKVX, 17.6 µM (inactive). The GI50 is 2.42 µM (inactive) with K562; 11.4 µM (inactive) with UO-31; 2.06 µM (inactive) with OVCAR-3; 13.4 µM (inactive) in the test on OVCAR-8; 14.2 µM (inactive) in the test with SF-539; 13.3 µM (inactive) in the test with SF-268. Moreover, the figures for the GI50 in the test with HCC 2998 and with MOLT-4 were 13 µM (inactive) and 8.51 µM (inactive), respectively.
